# Source: US4257941A, “Polycyclic nitrogen-containing compounds” (BASF Aktiengesellschaft, priority 1976, dated 1981)
# What was measured:
# Type in all cases: in vivo
# [1] = test system: spring barley; assay: Stem length, lateral shoots and yield in spring barley (Example 12); details: for Ear weight relative / No. of lateral shoots relative / Stem length relative: control 100
# Experimental: To examine the effect of the various substances on spring barley up to the maturity stage of the plants, an experiment was carried out in large pots. The plants were grown in quartz sand (fertilized with 2 g N as ammonium nitrate in 3 doses, 1 g P2 O5 as secondary sodium phosphate, 1.5 g K2 O as potassium sulfate, 0.5 g MgO as magnesium sulfate, 10 ml of a solution of trace elements, and 10 mg of iron as an iron complex). […] The treated plants were up to 10% shorter than the control, and yields were also slightly up.
# [2] = test system: soybeans; assay: Growth of roots and shoots of soybeans, hydroponic (Example 16); details: for Root dry substance rel. / Root length rel. / Shoot dry substance rel. / Shoot length rel.: control 100
# Experimental: (§1) Young soybean plants grown in quartz sand were transferred to hydroponic treatment in 4 liter vessels and provided with a sufficient supply of nutrient solution and trace elements. The active ingredients were added (0.25 mg/vessel=0.06 ppm; 1.0 mg/vessel=0.25 ppm; 2.5 mg/vessel=0.63 ppm) at a plant height of approx. 22 cm. The plants were in continuous contact with the active ingredients. […] The roots were also shorter, but the plants had more and stronger shoots.
# [3] = test system: soybeans; assay: Action on soybeans, hydroponic (Example 17a); details: for Root dry substance rel. / Root length rel. / Shoot dry substance rel. / Shoot length rel.: control 100
# Experimental: as §1
# (§2) The action on soybeans, field beans and sunflowers was examined under the same conditions as in Example 16. The shoots and roots of all 3 crop plants were considerably shortened. Whereas in the shoots the dry substance was reduced commensurately with the shortening, the dry substance in the roots rose (particularly in soybeans) as the concentration increased.
# [4] = test system: field beans; assay: Action on field beans, hydroponic (Example 17b); details: for Root dry substance rel. / Root length rel. / Shoot dry substance rel. / Shoot length rel.: control 100
# Experimental: as §1, §2
# [5] = test system: sunflowers; assay: Action on sunflowers, hydroponic (Example 17c); details: for Root dry substance rel. / Root length rel. / Shoot dry substance rel. / Shoot length rel.: control 100
# Experimental: as §1, §2
# [6] = test system: cotton; assay: Induction of flowering and growth height of cotton, hydroponic (Example 18); details: for Shoot length: 4 weeks; for No. of squares per vessel (3 plants): control 0, average of 3 vessels; for Shoot length rel.: control 100
# Experimental: Cotton plants were subjected to hydroponic treatment under the same conditions as in Example 16. The active ingredients were added (1.25 mg/vessel=0.3 ppm and 5 mg/vessel=1.25 ppm) at a height of the plant of 15 to 18 cm. […] The results below are averages from 3 vessels, each of 3 plants.
# [7] = test system: rice; assay: Action on rice (Example 23); details: leaf; for Plant height: 66 days; for Plant height relative: control 100
# Experimental: At a growth height of 11 to 13 cm the active ingredients were sprayed onto the leaves in the usual manner. The plants were measured after 66 days.
# [8] = test system: sunflowers; assay: Action on sunflowers (Example 24); details: for Plant height relative: control 100
# Source text: The active ingredients were applied both to the soil and to the leaves.
smiles,measurement,setting,value
Clc1ccc(N2N=NC3C4CC(C5N=NC45)C32)cc1 (stereo not drawn) [drawing 377],Ear weight,[1]; 0.5 kg/ha,91.5 g
same,No. of lateral shoots,[1]; 0.5 kg/ha,105
same,Stem length,[1]; 0.5 kg/ha,74.1 cm
same,Ear weight relative,[1]; 0.5 kg/ha,101.2
same,No. of lateral shoots relative,[1]; 0.5 kg/ha,112.9
same,Stem length relative,[1]; 0.5 kg/ha,96.4
same,Ear weight,[1]; 1.5 kg/ha,94.8 g
same,No. of lateral shoots,[1]; 1.5 kg/ha,111
same,Stem length,[1]; 1.5 kg/ha,69.7 cm
same,Ear weight relative,[1]; 1.5 kg/ha,104.9
same,No. of lateral shoots relative,[1]; 1.5 kg/ha,119.4
same,Stem length relative,[1]; 1.5 kg/ha,90.6
Clc1ccc(N2N=NC3C4CC(C5N=NC45)C32)cc1 (stereo not drawn) [drawing 387],Root dry substance,[2]; 0.06 ppm,13.5 g
same,Root length,[2]; 0.06 ppm,28.3 cm
same,Shoot dry substance,[2]; 0.06 ppm,39.0 g
same,Shoot length,[2]; 0.06 ppm,70.7 cm
same,Root dry substance rel.,[2]; 0.06 ppm,97.1
same,Root length rel.,[2]; 0.06 ppm,93.4
same,Shoot dry substance rel.,[2]; 0.06 ppm,94.9
same,Shoot length rel.,[2]; 0.06 ppm,95.4
same,Root dry substance,[2]; 0.25 ppm,13.2 g
same,Root length,[2]; 0.25 ppm,24.7 cm
same,Shoot dry substance,[2]; 0.25 ppm,31.5 g
same,Shoot length,[2]; 0.25 ppm,62.3 cm
same,Root dry substance rel.,[2]; 0.25 ppm,95.0
same,Root length rel.,[2]; 0.25 ppm,81.5
same,Shoot dry substance rel.,[2]; 0.25 ppm,76.6
same,Shoot length rel.,[2]; 0.25 ppm,84.1
same,Root dry substance,[2]; 0.63 ppm,15.0 g
same,Root length,[2]; 0.63 ppm,24.7 cm
same,Shoot dry substance,[2]; 0.63 ppm,26.6 g
same,Shoot length,[2]; 0.63 ppm,51.7 cm
same,Root dry substance rel.,[2]; 0.63 ppm,107.9
same,Root length rel.,[2]; 0.63 ppm,81.5
same,Shoot dry substance rel.,[2]; 0.63 ppm,64.7
same,Shoot length rel.,[2]; 0.63 ppm,69.8
Brc1ccc(N2N=NC3C4CC(C5N=NC45)C32)cc1 (stereo not drawn) [drawing 388],Root dry substance,[3]; 0.06 ppm,1.5 g
same,Root length,[3]; 0.06 ppm,21.7 cm
same,Shoot dry substance,[3]; 0.06 ppm,5.4 g
same,Shoot length,[3]; 0.06 ppm,33.0 cm
same,Root dry substance rel.,[3]; 0.06 ppm,136.4
same,Root length rel.,[3]; 0.06 ppm,75.6
same,Shoot dry substance rel.,[3]; 0.06 ppm,93.1
same,Shoot length rel.,[3]; 0.06 ppm,89.9
same,Root dry substance,[3]; 0.25 ppm,1.5 g
same,Root length,[3]; 0.25 ppm,20.0 cm
same,Shoot dry substance,[3]; 0.25 ppm,4.9 g
same,Shoot length,[3]; 0.25 ppm,21.7 cm
same,Root dry substance rel.,[3]; 0.25 ppm,136.4
same,Root length rel.,[3]; 0.25 ppm,69.7
same,Shoot dry substance rel.,[3]; 0.25 ppm,84.5
same,Shoot length rel.,[3]; 0.25 ppm,59.1
same,Root dry substance,[3]; 0.63 ppm,2.1 g
same,Root length,[3]; 0.63 ppm,20.0 cm
same,Shoot dry substance,[3]; 0.63 ppm,3.9 g
same,Shoot length,[3]; 0.63 ppm,19.0 cm
same,Root dry substance rel.,[3]; 0.63 ppm,190.9
same,Root length rel.,[3]; 0.63 ppm,69.7
same,Shoot dry substance rel.,[3]; 0.63 ppm,67.2
same,Shoot length rel.,[3]; 0.63 ppm,51.8
Brc1ccc(N2N=NC3C4CC(C5N=NC45)C32)cc1 (stereo not drawn) [drawing 389],Root dry substance,[4]; 0.06 ppm,3.8 g
same,Root length,[4]; 0.06 ppm,28.3 cm
same,Shoot dry substance,[4]; 0.06 ppm,14.5 g
same,Shoot length,[4]; 0.06 ppm,69.7 cm
same,Root dry substance rel.,[4]; 0.06 ppm,63.3
same,Root length rel.,[4]; 0.06 ppm,68.5
same,Shoot dry substance rel.,[4]; 0.06 ppm,85.8
same,Shoot length rel.,[4]; 0.06 ppm,95.5
same,Root dry substance,[4]; 0.25 ppm,5.3 g
same,Root length,[4]; 0.25 ppm,28.3 cm
same,Shoot dry substance,[4]; 0.25 ppm,14.5 g
same,Shoot length,[4]; 0.25 ppm,67.3 cm
same,Root dry substance rel.,[4]; 0.25 ppm,85.5
same,Root length rel.,[4]; 0.25 ppm,68.5
same,Shoot dry substance rel.,[4]; 0.25 ppm,85.8
same,Shoot length rel.,[4]; 0.25 ppm,92.2
same,Root dry substance,[4]; 0.63 ppm,6.0 g
same,Root length,[4]; 0.63 ppm,25.0 cm
same,Shoot dry substance,[4]; 0.63 ppm,13.0 g
same,Shoot length,[4]; 0.63 ppm,56.7 cm
same,Root dry substance rel.,[4]; 0.63 ppm,96.8
same,Root length rel.,[4]; 0.63 ppm,60.5
same,Shoot dry substance rel.,[4]; 0.63 ppm,76.9
same,Shoot length rel.,[4]; 0.63 ppm,77.7
Brc1ccc(N2N=NC3C4CC(C5N=NC45)C32)cc1 (stereo not drawn) [drawing 390],Root dry substance,[5]; 0.06 ppm,1.5 g
same,Root length,[5]; 0.06 ppm,18.7 cm
same,Shoot dry substance,[5]; 0.06 ppm,6.3 g
same,Shoot length,[5]; 0.06 ppm,35.0 cm
same,Root dry substance rel.,[5]; 0.06 ppm,100
same,Root length rel.,[5]; 0.06 ppm,93.5
same,Shoot dry substance rel.,[5]; 0.06 ppm,98.4
same,Shoot length rel.,[5]; 0.06 ppm,84.7
same,Root dry substance,[5]; 0.25 ppm,1.4 g
same,Root length,[5]; 0.25 ppm,16.7 cm
same,Shoot dry substance,[5]; 0.25 ppm,5.3 g
same,Shoot length,[5]; 0.25 ppm,27.3 cm
same,Root dry substance rel.,[5]; 0.25 ppm,93.3
same,Root length rel.,[5]; 0.25 ppm,83.5
same,Shoot dry substance rel.,[5]; 0.25 ppm,82.8
same,Shoot length rel.,[5]; 0.25 ppm,66.1
same,Root dry substance,[5]; 0.63 ppm,1.6 g
same,Root length,[5]; 0.63 ppm,12.7 cm
same,Shoot dry substance,[5]; 0.63 ppm,5.2 g
same,Shoot length,[5]; 0.63 ppm,27.3 cm
same,Root dry substance rel.,[5]; 0.63 ppm,106.7
same,Root length rel.,[5]; 0.63 ppm,63.5
same,Shoot dry substance rel.,[5]; 0.63 ppm,81.3
same,Shoot length rel.,[5]; 0.63 ppm,66.1
Clc1ccc(N2N=NC3C4CC(C5N=NC45)C32)cc1 (stereo not drawn) [drawing 391],Shoot length,[6]; 0.3 ppm,40.2 cm
same,No. of squares per vessel (3 plants),[6]; 0.3 ppm,4.0
same,Shoot length rel.,[6]; 0.3 ppm,85.2
same,Shoot length,[6]; 1.25 ppm,27.8 cm
same,No. of squares per vessel (3 plants),[6]; 1.25 ppm,8.7
same,Shoot length rel.,[6]; 1.25 ppm,58.9
Brc1ccc(N2N=NC3C4CC(C5N=NC45)C32)cc1 (stereo not drawn) [drawing 392],Shoot length,[6]; 0.3 ppm,41.9 cm
same,No. of squares per vessel (3 plants),[6]; 0.3 ppm,2.6
same,Shoot length rel.,[6]; 0.3 ppm,88.8
same,Shoot length,[6]; 1.25 ppm,30.9 cm
same,No. of squares per vessel (3 plants),[6]; 1.25 ppm,8.3
same,Shoot length rel.,[6]; 1.25 ppm,65.5
Clc1ccc(N2N=NC3C4CC(C5N=NC45)C32)cc1 (stereo not drawn) [drawing 404],Plant height,[7]; 1.0 kg/ha,35.0 cm
same,Plant height relative,[7]; 1.0 kg/ha,86.2
same,Plant height,[7]; 2.0 kg/ha,33.0 cm
same,Plant height relative,[7]; 2.0 kg/ha,81.3
same,Plant height,[7]; 4.0 kg/ha,29.5 cm
same,Plant height relative,[7]; 4.0 kg/ha,72.7
same,Plant height,[7]; 6.0 kg/ha,28.5 cm
same,Plant height relative,[7]; 6.0 kg/ha,70.2
Brc1ccc(N2N=NC3C4CC(C5N=NC45)C32)cc1 (stereo not drawn) [drawing 405],Plant height,[7]; 1.0 kg/ha,37.0 cm
same,Plant height relative,[7]; 1.0 kg/ha,91.1
same,Plant height,[7]; 2.0 kg/ha,37.0 cm
same,Plant height relative,[7]; 2.0 kg/ha,91.1
same,Plant height,[7]; 4.0 kg/ha,34.5 cm
same,Plant height relative,[7]; 4.0 kg/ha,85.0
same,Plant height,[7]; 6.0 kg/ha,33.5 cm
same,Plant height relative,[7]; 6.0 kg/ha,82.5
Clc1ccc(N2N=NC3C4CC(C5N=NC45)C32)cc1 (stereo not drawn) [drawing 406],Plant height,"[8]; soil, 3.0 kg/ha",26.5 cm
same,Plant height relative,"[8]; soil, 3.0 kg/ha",73
same,Plant height,"[8]; soil, 12.0 kg/ha",15.5 cm
same,Plant height relative,"[8]; soil, 12.0 kg/ha",43
Brc1ccc(N2N=NC3C4CC(C5N=NC45)C32)cc1 (stereo not drawn) [drawing 407],Plant height relative,"[8]; soil, 3.0 kg/ha",84
same,Plant height,"[8]; soil, 12.0 kg/ha",22.5 cm
same,Plant height relative,"[8]; soil, 12.0 kg/ha",62
Clc1ccc(N2N=NC3C4CC(C5N=NC45)C32)cc1 (stereo not drawn) [drawing 408],Plant height relative,"[8]; leaf, 1.5 kg/ha",78
same,Plant height,"[8]; leaf, 6.0 kg/ha",25.5 cm
same,Plant height relative,"[8]; leaf, 6.0 kg/ha",67
Brc1ccc(N2N=NC3C4CC(C5N=NC45)C32)cc1 (stereo not drawn) [drawing 409],Plant height,"[8]; leaf, 1.5 kg/ha",33.0 cm
same,Plant height relative,"[8]; leaf, 1.5 kg/ha",86
same,Plant height,"[8]; leaf, 6.0 kg/ha",30.0 cm
same,Plant height relative,"[8]; leaf, 6.0 kg/ha",78
